According to patent US7429571B2, “Therapeutic furopyrimidines and thienopyrimidines” (BioCryst Pharmaceuticals, Inc., priority 2004, dated 2008):

System: not given
Settings: not given

SMILES	melting point [°C]
CNc1ncnc2c([C@@H]3O[C@H](CO)[C@@H](O)[C@H]3O)coc12	88 to 100
CC(C)Nc1ncnc2c([C@@H]3O[C@H](CO)[C@@H](O)[C@H]3O)coc12	58 to 80
OC[C@H]1O[C@@H](c2coc3c(N4CCCC4)ncnc23)[C@H](O)[C@@H]1O	198
CCNc1ncnc2c([C@@H]3O[C@H](CO)[C@@H](O)[C@H]3O)coc12	76 to 88
COC(=O)C(NP(=O)(OC[C@H]1O[C@@H](c2coc3c(N)ncnc23)[C@](C)(O)[C@@H]1O)Oc1ccccc1)C(C)C (stereo in doubt)	58 to 62
C[C@@]1(O)[C@H](O)[C@@H](CO)O[C@H]1c1coc2c(N(N)CCO)ncnc12	84 to 92
OC[C@H]1O[C@@H](c2coc3c(N4CCC4)ncnc23)[C@H](O)[C@@H]1O	192
OC[C@H]1O[C@@H](c2coc3c(NC4CC4)ncnc23)[C@H](O)[C@@H]1O	88 to 100
CN(N)c1ncnc2c([C@@H]3O[C@H](CO)[C@@H](O)[C@@]3(C)O)coc12	70 to 84
CN(C)c1ncnc2c([C@@H]3O[C@H](CO)[C@@H](O)[C@H]3O)coc12	210
CCCNc1ncnc2c([C@@H]3O[C@H](CO)[C@@H](O)[C@H]3O)coc12	58 to 80
C[C@@]1(O)[C@H](O)[C@@H](CO)O[C@H]1c1coc2c(=O)[nH]c(N)nc12	80 to 84

System: HCV
Settings: patients, sole treatment; cited from earlier work

SMILES	effect on serum levels of HCV-RNA
NC(=O)c1ncn([C@@H]2O[C@H](CO)[C@@H](O)[C@H]2O)n1 [Ribavirin, 1-β-D-ribofuranosyl-1-1,2,4-triazole-3-carboxamide]	does not lower serum levels of HCV-RNA

Same assay, conditions: ribavirin alone; cited from earlier work

SMILES	patients in whom serum amino transferase levels are reduced to normal [%]
NC(=O)c1ncn([C@@H]2O[C@H](CO)[C@@H](O)[C@H]2O)n1 [Ribavirin, 1-β-D-ribofuranosyl-1-1,2,4-triazole-3-carboxamide]	40
